Residues, ends and D or L forms follow the SMILES beside them. *: point of attachment. X5 = CCC(=O)OC1(C(=O)C(O)O*)CCC2C3CC(C)C4=CC(=O)C=CC4(C)C3C(O)CC21C; Pentanoyl = CCCCC(=O)*

Broadly, the melting point is the temperature of the solid-liquid transition. Regarding `COC(=O)c1ccc(Cn2c(C(=O)C3CCN(CCC4(c5ccc(OC)c(OC)c5)CCN(C(=O)c5cc(OC)c(OC)c(OC)c5)C4)CC3)nc3ccccc32)cc1` (configuration not stated), the melting point was in the range of 100 to 104 °C. For `COc1ccc2c(c1)c(CC(=O)NCC(C)(C)SN=O)c(C)n2C(=O)c1ccc(Cl)cc1` the value was 177 to 178 °C; for `CCCCCCCCCCCCCCCCCN1C(=O)C2=C(c3ccc(Br)s3)N(CCCCCCCCCCCCCCCCC)C(=O)C2=C1c1ccc(Br)s1`, 166 to 167 °C; for `CCOCc1nc2c(N)nc3cc(-c4cccnc4)ccc3c2n1CC1CCN(C(=O)C2CCCO2)CC1` (configuration not stated), 191 to 192 °C.

On to `COc1cc(C(=O)O)ccc1Cc1cn(C(C)=O)c2ccc(NC(=O)CC3CCCC3)cc12`, for which the melting point was 245 to 247 °C. Next, `Cc1c(O)cc(C(C)(C)C)c(O)c1C(=O)Nc1ccc(S(=O)(=O)C(F)(F)F)cc1Cl`: 163 to 166 °C. Next, `Cc1ccc(C(c2ccc(C)c(C(OS(C)(=O)=O)(C(F)(F)F)C(F)(F)F)c2)(C(F)(F)F)C(F)(F)F)cc1C(OS(C)(=O)=O)(C(F)(F)F)C(F)(F)F`: 135 °C; `CCOP(=O)(OCC)Oc1ccc([N+](=O)[O-])cc1`: 35 to 38 °C; `NCCC(N)c1ccccc1C(F)(F)F` (configuration not stated): 213 to 217 °C. Next, `CCOCCCO`: 5.2 °C; `CC(C)CC1C(=O)OC(Cc2ccccc2)C(=O)N(C)C(CC(C)C)C(=O)OC(C)CN(C)C(CC(C)C)C(=O)OC(Cc2ccccc2)C(=O)N(C)C(CC(C)C)C(=O)OC(C)CN1C` (configuration not stated): 130 to 132 °C. `Cc1nn(-c2ccc(C(F)(F)F)cn2)cc1CCCOc1cccc(OC(C)(C)C(=O)O)c1` came in with a melting point of 107 to 108 °C.

As for `CCCCCCCCCCCCCCCCCCOc1ccc(OCCCOc2ccc(OCc3ccccc3)cc2)c(C(=O)N(CC(=O)OCC)CC(=O)OCC)c1`, the melting point lay in the range of 54 to 55 °C. For `CCCCCCCCCCCCCCCC(=O)C(O)C(O)(C(=O)c1cccc(NC(=O)C(CS)Cc2ccccc2)c1)C(O)C(=O)CCCCCCCCCCCCCCC` (configuration not stated) the value was 66 to 68 °C; for `CC(NC(=O)C(CC(C(=O)O)C(C)(C)C)NC(=O)C(CC(C(=O)O)C(C)(C)C)NC(=O)C(NC(=O)OCc1ccccc1)C(C)C)C(=O)NC(CC(C(=O)O)C(C)(C)C)C(=O)NC(CC(N)=O)C(=O)OC(C)(C)C` (configuration not stated), 217 to 219 °C; for `CC(=O)N1C(C)(C)CC(OC(=O)CCn2c(=O)n(CCC(=O)OC3CC(C)(C)N(C(C)=O)C(C)(C)C3)c(=O)n(CCC(=O)OC3CC(C)(C)N(C(C)=O)C(C)(C)C3)c2=O)CC1(C)C`, 126 to 128 °C. Next, `CCC(C)C=O` (configuration not stated): -60 °C; `C=CCCC(=O)Nc1c(I)c(C(=O)NC(COC(C)=O)COC(C)=O)c(I)c(C(=O)NC(COC(C)=O)COC(C)=O)c1I`: 162 to 164 °C; `[C-]#[N+]Cc1nc(-c2ccccc2)c(-c2ccccc2)o1`: 95 to 96 °C.

Regarding `CCc1nc(OC)c(NC(=O)N2CCN(c3cc(OC)c(OC)c(OC)c3)CC2)cc1C(=O)NC(C)C(=O)Nc1cc(CO)cc(Nc2c3ccccc3nc3ccccc23)c1` (configuration not stated), the melting point fell in the range of 205 to 207 °C. Regarding `COC(=O)CNC(=O)[C@H](NC(=O)[C@@H](CSC(c1ccccc1)(c1ccccc1)c1ccccc1)NC(=O)[C@@H](C)NC(=O)OCC1c2ccccc2-c2ccccc21)C(C)C`, the melting point lay within 195 to 197 °C.

The molecule `FC(F)(F)c1ccc(-c2cc(-c3ccc(C(F)(F)F)cc3C(F)(F)F)c3ccc4c(-c5ccc(C(F)(F)F)cc5C(F)(F)F)cc(-c5ccc(C(F)(F)F)cc5C(F)(F)F)c5ccc2c3c54)c(C(F)(F)F)c1` registered a melting point of 290 °C. On to `CCCCC(Cc1cc(C(C)(C)C)c(O)c(C(C)(C)C)c1)(C(=O)OC1CC(C)(C)N(OC2CCCCC2)C(C)(C)C1)C(=O)OC1CC(C)(C)N(OC2CCCCC2)C(C)(C)C1`, for which the melting point was in the range of 184 to 185 °C.

For `CC(=O)OC1C(=O)C2(C)C(O)CC3OCC3(OC(C)=O)C2C(OC(=O)c2ccccc2)C2(O)CC(OC(=O)C(OC(=O)CCC(=O)O)C(NC(=O)c3ccccc3)c3ccccc3)C(C)=C1C2(C)C` (configuration not stated), the melting point lay within 178 to 180 °C. Next, `Cc1ccc2c(c1)CC(=O)N2c1c(F)cc(F)cc1Cl`: 137 to 140 °C; `CC(C)[C@H](NC(=O)OCc1ccccn1)C(=O)N[C@@H](Cc1ccccc1)[C@H](O)[C@@H](O)[C@H](Cc1ccccc1)NC(=O)[C@@H](NC(=O)N(C)Cc1csc(N)n1)C(C)C`: 188 to 192 °C. Next, `COCCOCOc1cc(C(ON=C(C(=O)O)c2csc(NC(c3ccccc3)(c3ccccc3)c3ccccc3)n2)C(=O)OC(c2ccccc2)c2ccccc2)cc(C#N)c1OCOCCOC` (configuration not stated): 158 °C; `[C-]#[N+]c1c(C)cccc1C(C)(C)C`: 60 to 62 °C. For `CN1C(=O)C(Br)=C(c2cn(C3OC(COCc4ccccc4)C(OCc4ccccc4)C(OCc4ccccc4)C3OCc3ccccc3)c3ccccc23)C1=O` (configuration not stated) the value was 55 °C; for `Cc1ccc(S(=O)(=O)N2CCN(S(=O)(=O)c3ccc(C)cc3)CCN(S(=O)(=O)c3ccc(C)cc3)CC(CC(C)C)N(S(=O)(=O)c3ccc(C)cc3)CCN(S(=O)(=O)c3ccc(C)cc3)CC2)cc1` (configuration not stated), 142 to 145 °C; for `COc1cc(COc2nn(-c3ccccc3)cc2/C=C/c2nc(N3CCN(C(=O)OC(C)(C)C)CC3)sc2C)ccc1OCc1nc(-c2ccc(CC(=O)O)cc2)oc1C`, 119 to 120 °C. Turning to `Cc1ccc(O)c(Br)c1`, the melting point is 16 °C.

Turning to `COc1cc(OC)c(/C=C/C(c2ccc(OC)c(NC(C)=O)c2)S(=O)(=O)C(/C=C/c2c(OC)cc(OC)cc2OC)c2ccc(OC)c(NC(C)=O)c2)c(OC)c1` (configuration not stated), the melting point was in the range of 220 to 223 °C.

In turn, `CCCCCCCCCCCCCCCCCCN(CCCCCCCCCCCCCCCCCC)C(=O)c1cc(NS(=O)(=O)c2ccc(S(=O)(=O)CCC#N)cc2)c2ccccc2c1O` registered a melting point of 85 to 86 °C. For `C1CCC2NCCC2C1` (configuration not stated) the value was 85 °C; for `CC#CCOc1ccc(S(=O)(=O)C(C(=O)NO)C2CCCCC2)cc1` (configuration not stated), 191 °C; for `CCCCC(=O)NC(C)C(=O)NC(C)C(=O)N1CCCC1C(=O)NC(C(=O)OC(O)C(=O)C1(OC(=O)CC)CCC2C3CC(C)C4=CC(=O)C=CC4(C)C3C(O)CC21C)C(C)C` (configuration not stated) (Pentanoyl-AAPV-X5; configuration not given here), 142 °C. For `CC(=O)ON=C(N)c1ccc(CN(CCCCNC(=O)OC(C)(C)C)C(=O)CNC(=O)CN(CCc2ccccc2)S(=O)(=O)c2ccc(Cl)c(C)c2Cl)cc1` the value was 100 °C; for `Cc1ccc2cccc(OCc3c(Cl)ccc(S(=O)(=O)N4CCC[C@H]4C(=O)NC4CCN(C(=O)CCCN(C=NC(=O)OC(C)(C)C)NC(=O)OC(C)(C)C)CC4)c3Cl)c2n1`, 102 to 105 °C. For `COc1cc(OC)c(/C=C/C(c2ccc(OC)c(NC(=O)C(F)(F)C(F)(F)F)c2)S(=O)(=O)C(/C=C/c2c(OC)cc(OC)cc2OC)c2ccc(OC)c(NC(=O)C(F)(F)C(F)(F)F)c2)c(OC)c1` (configuration not stated) the value was 179 to 180 °C; for `CCCCN(Cc1c(C)cc(C(C)(C)C)c(O)c1C)S(=O)(=O)c1ccc(-c2ccc(S(=O)(=O)N(CCCC)Cc3c(C)cc(C(C)(C)C)c(O)c3C)cc2)cc1`, 225 to 227 °C. `O=C(CN1CCN(C(=O)c2cc(C(F)(F)F)cc(C(F)(F)F)c2)[C@H](Cc2c[nH]c3ccccc23)C1)N1CCN(C(c2ccccc2)(c2ccccc2)c2ccccc2)CC1` gave a melting point of 160 to 166 °C. In turn, `CCC1(CC)c2cc(-c3ccc(N(c4ccccc4)c4ccc(-c5ccc6c(c5)C(CC)(CC)c5cc(-c7nc8ccccc8s7)ccc5-6)cc4)cc3)ccc2-c2ccc(-c3nc4ccccc4s3)cc21` displayed a melting point of 257 to 262 °C. The molecule `O=C(NCCCCCCCCCCCCNC(=O)C(O)C(O)C(OC1OC(CO)C(O)C(O)C1O)C(O)CO)C(O)C(O)C(OC1OC(CO)C(O)C(O)C1O)C(O)CO` (configuration not stated) displayed a melting point of 79 to 81 °C. Next, `Cc1ccc(S(=O)(=O)N2CCN(C)CCN(S(=O)(=O)c3ccc(C)cc3)CCN(S(=O)(=O)c3ccc(C)cc3)CCN(S(=O)(=O)c3ccc(C)cc3)CC2)cc1`: 170 to 171 °C.

`CC(C)[Si](OC(=O)Cc1cc(I)c(Oc2cc(I)c(OCC3CO3)c(I)c2)c(I)c1)(C(C)C)C(C)C` (configuration not stated): the melting point was 120 °C. Next, `CS(=O)(=O)c1ccc(C(Cc2ccccc2Cl)C(=O)Nc2nc3ccccc3o2)cc1` (configuration not stated): 107 to 108 °C; `COc1cc(C(=O)c2c(C)c(C(=O)OCc3ccccc3)c3cc(N(C)C)ccn23)ccc1[N+](=O)[O-]`: 167 °C.

The molecule `CSC(=NS(=O)(=O)c1ccccc1)c1ccccc1` registered a melting point of 150 to 155 °C.

The molecule `NC(=O)c1c(C(=O)O)cnn1-c1ccccc1` had a melting point of 234 to 235 °C.

`CCCCCCCCCS(=O)(=O)c1cc2c3cc(S(=O)(=O)CCCCCCCCC)c(S(=O)(=O)CCCCCCCCC)cc3c3cc(S(=O)(=O)CCCCCCCCC)c(S(=O)(=O)CCCCCCCCC)cc3c2cc1S(=O)(=O)CCCCCCCCC` showed a melting point of 202 °C.

As for `CC(=O)Oc1ccc(-c2cnc(N(S(=O)(=O)Cc3ccc(I)cc3)S(=O)(=O)Cc3ccc(I)cc3)c(Cc3ccccc3)n2)cc1`, the melting point was in the range of 166 to 167 °C. Next, `NS(=O)(=O)c1ccc(-c2c(-c3ccccc3)noc2CO[N+](=O)[O-])cc1`: 47 to 50 °C; `Cc1cc(-c2nc3c(S(C)=O)cc(Cl)nn3c2-c2ccnc(N)c2)ccc1F` (configuration not stated): 216 to 217 °C. For `Cc1ccc2cccc(OCc3c(Cl)ccc(S(=O)(=O)N4CCC[C@H]4C(=O)NC4CCN(C(=O)CCN(C=NC(=O)OC(C)(C)C)NC(=O)OC(C)(C)C)CC4)c3Cl)c2n1` the value was 112 °C; for `O=C(O)CCOC1COCCCC=CC2CC2(C(=O)NS(=O)(=O)C2CC2)NC(=O)C2(NC(=O)Nc3ccccc3)CC(OC(=O)N(CCC(=O)O)c3ccccc3)CN2C1=O` (configuration not stated), 142 to 144 °C; for `CCCCCCCCCCCCc1cc(-c2c(Cl)c(Cl)c(-c3cc(CCCCCCCCCCCC)c(Br)s3)c3nsnc23)sc1Br`, 60 to 61 °C.

Source of the values: a melting point compilation (Tetko et al.).
